Assay results from patent US7820623B2 (priority 2006, dated 2010).
Read-outs that look alike come from different tables or passages of the source. Bridge positions count the residues as written; N and C are the ends. Square brackets hold non-standard residues; d marks the D form. Ends that are not written are not given here. Peptide text beside a SMILES is read from it. 1Nal = N[C@@H](Cc1cccc2ccccc12)C(=O)O

Legend:
[1] = system: thapsigargin-induced IFN-g production in human whole blood; type: cell-based
[2] = system: thapsigargin-induced IL-2 production in human whole blood
[3] = read-out: Analogue Activity (IC50) WB/IFNg
[4] = read-out: Analogue Activity (IC50) WB/IL-2

Row | Molecule | IC50 ([1]; read-out: Average IC50 IFNg) | IC50 ([2]; read-out: Average IC50 IL-2) | IC50 ([1]; read-out: WB/IFNg (IC50)) | IC50 ([2]; read-out: WB/IL-2 (IC50)) | further results
1 | CC[C@H](C)[C@@H]1NC(=O)[C@H](CCCCN)NC(=O)[C@@H](NC(=O)[C@H](CCCCN)NC(=O)[C@H](Cc2cccc3ccccc23)NC(=O)[C@H](CC(N)=O)NC(=O)[C@@H](NC(=O)[C@@H](NC(=O)[C@@H](NC(=O)CN)C(C)C)[C@@H](C)CC)[C@@H](C)CC)CSSC[C@@H]2NC(=O)[C@H](CCCCN)NC(=O)CNC(=O)[C@H](Cc3ccccc3)NC(=O)[C@H](CCCNC(=N)N)NC(=O)[C@H](CCSC)NC(=O)CNC(=O)[C@H](C)NC(=O)[C@H](CCCCN)NC(=O)[C@H](CCCCN)NC(=O)[C@@H]3CSSC[C@@H](C(=O)N[C@H](C(=O)N4CCC[C@H]4C(=O)N[C@@H](CCCCN)C(=O)O)[C@@H](C)O)NC(=O)[C@H](Cc4c[nH]cn4)NC(=O)[C@H](CSSC[C@H](NC(=O)[C@H](CCC(N)=O)NC(=O)[C@H](CCCNC(=N)N)NC(=O)[C@H](CO)NC1=O)C(=O)N[C@@H](CC(C)C)C(=O)N[C@@H](CCC(=O)O)C(=O)N1CCC[C@H]1C(=O)N3)NC(=O)[C@H](CCCCN)NC(=O)CNC(=O)[C@H](CC(N)=O)NC(=O)[C@H](CCSC)NC2=O [V6Nal] (H-GVIIN[1Nal]KCKISRQCLEPCKKAGMRFGKCMNGKCHCTPK-OH; disulfide 8-28, 14-33, 18-35) |  |  |  |  | IC50 [1, 3]: 2.46 nM; IC50 [2, 4]: 1.78 nM
2 | CC[C@H](C)[C@@H]1NC(=O)[C@H](CCCCN)NC(=O)[C@@H](NC(=O)[C@H](CCCCN)NC(=O)[C@H](CCCNC(=N)N)NC(=O)[C@H](CC(N)=O)NC(=O)[C@@H](NC(=O)[C@@H](NC(=O)[C@@H](NC(=O)CN)C(C)C)[C@@H](C)CC)[C@@H](C)CC)CSSC[C@@H]2NC(=O)[C@H](CCCCN)NC(=O)CNC(=O)[C@H](Cc3ccccc3)NC(=O)[C@H](CCCNC(=N)N)NC(=O)[C@H](CCSC)NC(=O)CNC(=O)[C@H](C)NC(=O)[C@H](CCCCN)NC(=O)[C@H](CCCCN)NC(=O)[C@@H]3CSSC[C@@H](C(=O)N[C@H](C(=O)N4CCC[C@H]4C(=O)N[C@@H](CCCCN)C(=O)O)[C@@H](C)O)NC(=O)[C@H](Cc4c[nH]cn4)NC(=O)[C@H](CSSC[C@H](NC(=O)[C@H](CCC(N)=O)NC(=O)[C@H](CCCNC(=N)N)NC(=O)[C@H](CO)NC1=O)C(=O)N[C@@H](CC(C)C)C(=O)N[C@@H](CCC(=O)O)C(=O)N1CCC[C@H]1C(=O)N3)NC(=O)[C@H](CCCCN)NC(=O)CNC(=O)[C@H](CC(N)=O)NC(=O)[C@H](CCSC)NC2=O [V6R] (H-GVIINRKCKISRQCLEPCKKAGMRFGKCMNGKCHCTPK-OH; disulfide 8-28, 14-33, 18-35) |  |  |  |  | IC50 [1, 3]: 0.115 nM; IC50 [2, 4]: 0.084 nM
3 | AVIINVKCKISRQCLEPCKKAGMRFGKCMNGKCHCTPK [Ala-1 (SEQ ID No: 1400)] | 0.119 nM | 0.122 nM |  |  | 
4 | E16K, K20D (GVIINVKCKISRQCLKPCKDAGMRFGKCMNGKCHCTPK; Definition of Artificial Sequence: Synthetic peptide) |  |  | 1.32 nM | 1.58 nM | 
5 | E16K, K20D, H34A (GVIINVKCKISRQCLKPCKDAGMRFGKCMNGKCACTPK) |  |  | 26.6 nM | 65.5 nM | 
6 | E16K, K20D, T36Y (GVIINVKCKISRQCLKPCKDAGMRFGKCMNGKCHCYPK; Definition of Artificial Sequence: Synthetic peptide) |  |  | 0.923 nM | 0.639 nM | 
7 | E16K, K20D, des36-38 (GVIINVKCKISRQCLKPCKDAGMRFGKCMNGKCHC) |  |  | 6.99 nM | 3.94 nM | 
8 | GAIINVKCKISRQCLEPCKKAGMRFGKCMNGKCHCTPK [Ala-2 (SEQ ID No: 1401)] | 0.103 nM | 0.0884 nM |  |  | 
9 | GGGGS-Osk1 (GGGGSGVIINVKCKISRQCLEPCKKAGMRFGKCMNGKCHCTPK) |  |  | 2.2 nM | 1.36 nM | 
10 | GVAINVKCKISRQCLEPCKKAGMRFGKCMNGKCHCTPK [Ala-3 (SEQ ID No: 1402)] | 0.0992 nM | 0.0883 nM |  |  | 
11 | GVIANVKCKISRQCLEPCKKAGMRFGKCMNGKCHCTPK [Ala-4 (SEQ ID No: 1403)] | 0.0873 nM | 0.111 nM |  |  | 
12 | GVIIAVKCKISRQCLEPCKKAGMRFGKCMNGKCHCTPK [Ala-5 (SEQ ID No: 1404)] | 0.067 nM | 0.0679 nM |  |  | 
13 | GVIINAKCKISRQCLEPCKKAGMRFGKCMNGKCHCTPK [Ala-6 (SEQ ID No: 1405)] | 0.0805 nM | 0.0733 nM |  |  | 
14 | GVIINVACKISRQCLEPCKKAGMRFGKCMNGKCHCTPK [Ala-7 (SEQ ID No: 1406)] | 0.0591 nM | 0.0675 nM |  |  | 
15 | GVIINVKCAISRQCLEPCKKAGMRFGKCMNGKCHCTPK [Ala-9 (SEQ ID No: 1407)] | 0.0711 nM | 0.0796 nM |  |  | 
16 | GVIINVKCKASRQCLEPCKKAGMRFGKCMNGKCHCTPK [Ala-10 (SEQ ID No: 1408)] | 0.0296 nM | 0.05 nM |  |  | 
17 | GVIINVKCKISAQCLEPCKKAGMRFGKCMNGKCHCTPK [Ala-12 (SEQ ID No: 1410)] | 0.155 nM | 0.123 nM |  |  | 
18 | GVIINVKCKISPQCLKPCKDAGIRFGKCINGKCACTPK | 0.513 nM | 0.514 nM |  |  | 
19 | GVIINVKCKISRACLEPCKKAGMRFGKCMNGKCHCTPK [Ala-13 (SEQ ID No: 1411)] | 0.133 nM | 0.148 nM |  |  | 

Row | Molecule | IC50 ([1]; read-out: Average IC50 IFNg) | IC50 ([2]; read-out: Average IC50 IL-2) | IC50 ([1]; read-out: WB/IFNg (IC50)) | IC50 ([2]; read-out: WB/IL-2 (IC50)) | further results
20 | GVIINVKCKISRQCAEPCKKAGMRFGKCMNGKCHCTPK [Ala-15 (SEQ ID No: 1412)] | 0.107 nM | 0.107 nM |  |  | 
21 | GVIINVKCKISRQCLAPCKKAGMRFGKCMNGKCHCTPK [Ala-16 (SEQ ID No: 1413)] | 0.101 nM | 0.101 nM |  |  | 
22 | GVIINVKCKISRQCLEACKKAGMRFGKCMNGKCHCTPK [Ala-17 (SEQ ID No: 1414)] | 0.173 nM | 0.173 nM |  |  | 
23 | GVIINVKCKISRQCLEPCAKAGMRFGKCMNGKCHCTPK [Ala-19 (SEQ ID No: 1415)] | 0.163 nM | 0.163 nM |  |  | 
24 | GVIINVKCKISRQCLEPCKAAGMRFGKCMNGKCHCTPK [Ala-20 (SEQ ID No: 1416)] | 0.379 nM | 0.379 nM |  |  | 
25 | GVIINVKCKISRQCLEPCKKAAMRFGKCMNGKCHCTPK [Ala-22 (SEQ ID No: 1418)] | 7.09 nM | 7.09 nM |  |  | 
26 | GVIINVKCKISRQCLEPCKKAGARFGKCMNGKCHCTPK [Ala-23 (SEQ ID No: 1419)] | 0.275 nM | 0.275 nM |  |  | 
27 | GVIINVKCKISRQCLEPCKKAGMRAGKCMNGKCHCTPK [Ala-25 (SEQ ID No: 1421)] | 3.08 nM | 3.08 nM |  |  | 
28 | GVIINVKCKISRQCLEPCKKAGMRFGACMNGKCHCTPK [Ala-27 (SEQ ID No: 1423)] | 1.58 nM | 3.45 nM |  |  | 
29 | GVIINVKCKISRQCLEPCKKAGMRFGKCANGKCHCTPK [Ala-29 (SEQ ID No: 1424)] | 0.292 nM | 0.447 nM |  |  | 
30 | GVIINVKCKISRQCLEPCKKAGMRFGKCMAGKCHCTPK [Ala-30 (SEQ ID No: 1425)] | 0.637 nM | 0.971 nM |  |  | 
31 | GVIINVKCKISRQCLEPCKKAGMRFGKCMNGKCACTPK [Ala-34 (SEQ ID No: 1428)] | 0.0573 nM | 0.0725 nM |  |  | 
32 | R12A, E16K, K20D (GVIINVKCKISAQCLKPCKDAGMRFGKCMNGKCHCTPK) |  |  | 0.092 nM | 0.041 nM | 
33 | des1, V2G, R12A, E16K, K19R, K20D, H34A (GIINVKCKISAQCLKPCRDAGMRFGKCMNGKCACTPK) |  |  | 2.24 nM | 1.5 nM | 
34 | des1-7, E16K, K20D, des36-38 (CKISRQCLKPCKDAGMRFGKCMNGKCHC-NH2; ends and bridges not checked) |  |  | 8.34 nM | 8.18 nM | 
35 | FcLoop-G2-OSK-G2 (protein) MDKTHTCPPCPAPELLGGPSVFLFPPKPKDTLMISRTPEVTCVVVDVSHEDPEVKFNWYVDGVEVHNAKTKPREEQYNSTYRVVSVLTVLHQDWLNGKEYKCKVSNKALPAPIEKTISKAKGQPREPQVYTLPPSRDELGGGVIINVKCKISRQCLEPCKKAGMRFGKCMNGKCHCTPKGGTKNQVSLTCLVKGFYPSDIAVEWESNGQPENNYKTTPPVLDSDGSFFLYSKLTVDKSRWQQGNVFSCSVMHEALHNHYTQKSLSLSPGK |  |  | 0.056 nM | 0.028 nM | 
36 | 20k PEG-L2-6H-L3-CH2-L10-OsK1(1-38) (conjugate) MGGHHHHHHGGGPSVFLFPPKPKDTLMISRTPEVTCVVVDVSHEDPEVKFNWYVDGVEVHNAKTKPREEQYNSTYRVVSVLTVLHQDWLNGKEYKCKVSNKALPAPIEKTISGGGGSGGGGSGVIINVKCKISRQCLEPCKKAGMRFGKCMNGKCHCTPK |  |  | 50.1 nM | 8.32 nM | 
37 | FcLoop-G2-ShK-G2 (protein) MDKTHTCPPCPAPELLGGPSVFLFPPKPKDTLMISRTPEVTCVVVDVSHEDPEVKFNWYVDGVEVHNAKTKPREEQYNSTYRVVSVLTVLHQDWLNGKEYKCKVSNKALPAPIEKTISKAKGQPREPQVYTLPPSRDELGGRSCIDTIPKSRCTAFQCKHSMKYRLSFCRKTCGTCGGTKNQVSLTCLVKGFYPSDIAVEWESNGQPENNYKTTPPVLDSDGSFFLYSKLTVDKSRWQQGNVFSCSVMHEALHNHYTQKSLSLSPGK |  |  | 0.119 nM | 0.109 nM | 
38 | FcLoop-G4-OSK-G2 (protein) MDKTHTCPPCPAPELLGGPSVFLFPPKPKDTLMISRTPEVTCVVVDVSHEDPEVKFNWYVDGVEVHNAKTKPREEQYNSTYRVVSVLTVLHQDWLNGKEYKCKVSNKALPAPIEKTISKAKGQPREPQVYTLPPSRDELGGGGGVIINVKCKISRQCLEPCKKAGMRFGKCMNGKCHCTPKGGTKNQVSLTCLVKGFYPSDIAVEWESNGQPENNYKTTPPVLDSDGSFFLYSKLTVDKSRWQQGNVFSCSVMHEALHNHYTQKSLSLSPGK |  |  | 0.195 nM | 0.15 nM | 
